According to US9156811B2 (priority 2008, dated 2015):
Read-outs that look alike come from different tables or passages of the source. One block for each compound: values may come before it.

Experiments:
[1] = biological target: T. brucei N-myristoyl transferase (Trypanosoma brucei brucei (strain 927/4 GUTat10.1), UniProt Q388H8); experiment: biochemical; format: biochemical; conditions: value with no enzyme tag in the cell; taken as T. brucei NMT; read-out: IC50 (μM) NMT Enzyme
[2] = test system: Trypanosome (T. brucei brucei); experiment: In-vitro antitrypanosomal efficacy assay (cell growth, resazurin); format: cell-based; conditions: T. brucei cell growth
[3] = test system: HT29; experiment: In-vitro antiproliferative assay, HT29; format: cell-based, human
[4] = test system: HCT116; experiment: In-vitro antiproliferative assay, HCT116; format: cell-based, human; conditions: read-out: IC50 HCT116
[5] = test system: MDA-MB-231; experiment: In-vitro antiproliferative assay, MDA-MB-231; format: cell-based, human; conditions: read-out: IC50 MDA-MB-231
[6] = test system: NCI-H1299; experiment: In-vitro antiproliferative assay, NCI-H1299; format: cell-based; conditions: Homo sapiens, read-out: IC50 NCI-H1299
[7] = test system: OE19; experiment: In-vitro antiproliferative assay, OE19; format: cell-based; conditions: Homo sapiens, read-out: IC50 OE19
[8] = test system: OE21; experiment: In-vitro antiproliferative assay, OE21; format: cell-based; conditions: Homo sapiens, read-out: IC50 OE21
[9] = test system: C6; experiment: In-vitro antiproliferative assay, C6; conditions: C6, 72 h, read-out: IC50 C6
[10] = test system: H460; experiment: In-vitro antiproliferative assay, H460; conditions: Homo sapiens, NCI-H460, 72 h, read-out: IC50 H460
[11] = test system: MRC5; experiment: In-vitro antiproliferative assay, MRC5; conditions: Homo sapiens, MRC5, 72 h, read-out: IC50 MRC5
[12] = test system: A549; experiment: In-vitro antiproliferative assay, A549; conditions: Homo sapiens, A549, 72 h, read-out: IC50 A549
[13] = test system: SkBr3; experiment: In-vitro antiproliferative assay, SkBr3; conditions: Homo sapiens, SK-BR-3, 72 h, read-out: IC50 SkBr3
[14] = test system: RT112; experiment: In-vitro antiproliferative assay, RT112; conditions: Homo sapiens, RT-112, 72 h, read-out: IC50 RT112
[15] = test system: HT1080; experiment: In-vitro antiproliferative assay, HT1080; conditions: Homo sapiens, HT-1080, 72 h, read-out: IC50 HT1080
[16] = CNS penetration: drug concentration in blood and brain after i.v. dosing; format: in vivo; conditions: iv, female NMRI mouse, single i.v. dose 2.0 mg/kg, t = 5 min, average of three animals
[17] = Homo sapiens, HCT-116, Table 4, 72 h, Alamar blue
[18] = Homo sapiens, MDA-MB-231, Table 4, 72 h, Alamar blue

Chain of T. brucei N-myristoyl transferase (Q388H8 1-446): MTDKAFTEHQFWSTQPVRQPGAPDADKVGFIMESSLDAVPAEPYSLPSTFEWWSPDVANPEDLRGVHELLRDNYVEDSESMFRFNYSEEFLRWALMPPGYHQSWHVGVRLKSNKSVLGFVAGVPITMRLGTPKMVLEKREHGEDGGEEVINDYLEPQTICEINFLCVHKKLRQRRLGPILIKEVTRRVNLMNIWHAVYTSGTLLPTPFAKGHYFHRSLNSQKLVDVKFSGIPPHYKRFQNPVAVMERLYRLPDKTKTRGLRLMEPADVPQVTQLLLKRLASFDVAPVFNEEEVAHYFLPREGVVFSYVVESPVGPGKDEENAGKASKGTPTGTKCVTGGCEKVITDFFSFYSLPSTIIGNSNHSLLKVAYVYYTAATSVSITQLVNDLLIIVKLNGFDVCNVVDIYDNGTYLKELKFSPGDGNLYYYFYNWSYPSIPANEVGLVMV

IC50 [1]: 0.004 µM
IC50 ([3]; Table 4, 72 h, Alamar blue, read-out: IC50 HT-29): 281 nM
IC50 ([4]; Table 4, 72 h, Alamar blue): 921 nM
IC50 ([5]; Table 4, 72 h, Alamar blue): 537 nM
SMILES: Cc1c(N[S+](=O)([O-])c2c(Cl)cc(CCCC3CCNCC3)cc2Cl)c(CC(C)C)nn1C [DDD90086]
ED50 (μM) T. brucei [2]: 0.006 µM

IC50 ([6]; NCI-H1299, Table 3, 72 h, Alamar blue): 1080 nM
IC50 ([5]; Homo sapiens, MDA-MB-231, Table 3, 72 h, Alamar blue): 640 nM
SMILES: Cc1nn(C)c(C)c1N[S+](=O)([O-])c1ccc(-c2cccc(CN3CCN(C)CC3)c2)cc1 [DDD86212, 3′-(4-Methyl-piperazin-1-ylmethyl)-biphenyl-4-sulfonic acid (1,3,6-trimethyl-1H-pyrazol-4-yl)-amide]
ED50 (μM) T. brucei [2]: 0.03 µM
IC50 ([7]; OE19, Table 3, 72 h, Alamar blue): 4370 nM
IC50 ([8]; OE21, Table 3, 72 h, Alamar blue): 1390 nM

IC50 [4, 17]: 419 nM
IC50 [5, 18]: 249 nM
SMILES: Cc1nn(C)c(C)c1N(C(F)F)[S+](=O)([O-])c1c(Cl)cc(CCCOC2CCN(C)CC2)cc1Cl [DDD100169]

IC50 ([6]; NCI-H1299, 72 h): 3710 nM
IC50 ([5]; Homo sapiens, MDA-MB-231, 72 h): 890 nM
SMILES: Cc1nn(C)c(C)c1N[S+](=O)([O-])c1c(Cl)cc(-c2cccc(C3CCNCC3)c2)cc1Cl
ED50 (μM) T. brucei [2]: 0.02 µM
IC50 ([7]; OE19, 72 h): 4570 nM
IC50 ([8]; OE21, 72 h): 1200 nM

Continued, compound first:

SMILES: Cc1c(N[S+](=O)([O-])c2c(Cl)cc(-c3ccnc(N4CCNCC4)c3)cc2Cl)c(CC(C)C)nn1C [DDD86481, 2,6-Dichloro-N-(3-isobutyl-1,5-dimethyl-1H-pyrazol-4-yl)-4-(2-piperazin-1-yl-pyridin-4-yl)-benzenesulfonamide]
IC50 ([6]; NCI-H1299, 72 h): 96 nM
IC50 ([5]; Homo sapiens, MDA-MB-231, 72 h): 47 nM
IC50 ([7]; OE19, 72 h): 132 nM
IC50 ([8]; OE21, 72 h): 57 nM

SMILES: Cc1nn(C)c(C)c1N[S+](=O)([O-])c1c(Cl)cc(-c2ccnc(N3CCNCC3)c2)cc1Cl [DDD85646, 2,6-Dichloro-4-(2-piperazin-1-yl-pyridin-4-yl)-N-(1,3,5-trimethyl-1H-pyrazol-4-yl)-benzenesulfonamide]
ED50 (μM) T. brucei [2]: 0.001 µM
IC50 ([3]; Homo sapiens, HT-29, 72 h, read-out: IC50 HT29): 112 nM
IC50 ([3]; Homo sapiens, HT-29, 72 h, read-out: IC50 HT-29): 112 nM
IC50 ([4]; Homo sapiens, HCT-116, 72 h): 234 nM
IC50 ([6]; NCI-H1299, 72 h): 570 nM
IC50 ([5]; Homo sapiens, MDA-MB-231, 72 h): 230 nM
IC50 ([7]; OE19, 72 h): 660 nM
IC50 ([8]; OE21, 72 h): 290 nM
IC50 [9]: 1160 nM
IC50 [10]: 1320 nM
IC50 [11]: 123 nM
IC50 [12]: 157 nM
IC50 [13]: 108 nM
IC50 [14]: 330 nM
IC50 [15]: 60 nM

SMILES: Cc1nn(C)c(C)c1N(C(F)F)[S+](=O)([O-])c1c(Cl)cc(CCCCC2CCN(C)CC2)cc1Cl [DDD100144, 2,6-dichloro-N-(difluoromethyl)-4-(4-(1-methylpiperidin-4-yl)butyl)-N-(1,3,5-trimethyl-1H-pyrazol-4-yl)benzenesulfonamide]
IC50 ([4]; Homo sapiens, HCT-116, 72 h): 282 nM
IC50 ([5]; Homo sapiens, MDA-MB-231, 72 h): 218 nM
concentration at 5 min ([16]; brain, read-out: Conc (ng/ml in brain)): 545 ng/mL
concentration at 5 min ([16]; whole blood, read-out: Conc (ng/ml in blood)): 413 ng/mL

SMILES: Cc1nn(C)c(C)c1N[S+](=O)([O-])c1c(Cl)cc(-c2cccc(CN3CCN(C)CC3)c2)cc1Cl [DDD88558]
ED50 (μM) T. brucei [2]: 0.009 µM
IC50 ([3]; Homo sapiens, HT-29, Table 4, 72 h, Alamar blue, read-out: IC50 HT-29): 176 nM
IC50 [4, 17]: 629 nM
IC50 [5, 18]: 448 nM
